# Test results taken from US7723023B2, “Use of intrinsic reporters of cell signaling for high content drug profiling and toxicity screening” (Mount Sinai School of Medicine, priority 2001, dated 2010).
# Experiments:
# [1] = test system: GnRHR-expressing LβT2 gonadotrope cell line; assay: SYBR green real-time PCR of transcripts regulated by GnRH in LβT2 cells; type: cell-based, mouse; details: 1 hour
# Experimental: Cell Culture and Sample Preparation: LβT2 cells were obtained and maintained at 37° C. in 5% CO2 in humidified air in DMEM (Mediatech) containing 10% fetal bovine serum (Gemini). For experiments. 40-50×10^6 cells were seeded in 15 cm dishes. The medium was replaced 21 hours later with DMEM containing 25 mM HEPES (Mediatech) and glutamine. 18 hours later, the cells were treated with 100 nM GnRH or vehicle and were returned to the CO2 incubator for 1 hour. The incubation was stopped by aspirating the incubation medium and adding 10 ml of lysis buffer (4M guanidinium thiocyanate, 25 mM sodium citrate, pH 7.0, 0.5% N-lauroyl-sarcosine, and 0.1 M 2-mercaptoethanol). Total RNA was isolated according to the method of Chomczynski and Sacchi (1987) supra. Approximately 400 μg total RNA was obtained from each plate.
# Real Time PCR. The protocol of Example 1 above, was used. Briefly, […] total RNA was converted into cDNA and […] (approximately 500 pg) was utilized for 40 cycle three-step PCR in an ABI Prism 7700 with 20 mM Tris pH 8.4, 50 mM KCL, 3 mM MgCl2, 200 μM dNTPs, 0.5×SYBR® green (Molecular Probes), […] primer and 0.5 U Platinum Taq (Life Technologies). Amplicon size and reaction specificity was confirmed by agarose gel electrophoresis. The number of target copies in each sample was interpolated from its detection threshold (CT) value using a plasmid or purified PCR product standard curve included on each plate. The sequence of the 60 primer sets utilized can be found in supplementary material. Each transcript in each sample was assayed 5 times and the median CT values were used for analysis.
# Confirmation of Gene Regulation by Real-Time PCR. The measurement accuracy of the microarray and the biological variability of the transcriptional program identified was evaluated through a validation study comprising real time PCR assays of 60 transcripts, including 26 genes that met the threshold for regulation in the microarray assay. To generate accurate and precise reference measurements of these genes, 5 measurements were made of each gene in each RNA sample and the measurements were calibrated with a standard curve included on each PCR plate (FIG. 4). Nine experimental pairs of vehicle and GnRH-treated cultures were tested, including the microarray assayed samples. 100% (17 of 17) of the gene changes showing >1.6-fold change on the microarray and 66% (6 of 9) of gene changes showing between 1.3 and 1.6-fold changes were confirmed by PCR. […] Because the threshold was set at a 1.3-fold change, these genes are considered to be not confirmed (see discussion below).
# [2] = test system: gonadotrope cell line LβT2 cells; assay: Time course of IRC response to GnRH in presence and absence of cyclohexamide (CHX); type: cell-based, mouse; details: 100 nM GnRH, protein synthesis inhibitor cyclohexamide
# Experimental: The cells were treated with 100 nM GnRH in the presence and absence of the inhibitor of protein synthesis, cyclohexamide (CHX). […] No other proteins need to be synthesized to induce activation of this IRC. The use of a time course such as that illustrated allow selection of the optimum time point or time points after stimulation at which to assay the IRCs to provide the most complete map of the cell global signal transduction response.
# The proper time point or time points after exposure can be determined experimentally in any system by performing a time course of the gene response. If a single time point after exposure is assayed, it is best to select a time at which most IRCs are continuing to show an increase in the level of expression. This is usually between 30 minutes and 1 hour.
# [3] = 100 nM GnRH vs vehicle, LβT2 cells
# [4] = gene did not meet the criteria on the microarray, 100 nM GnRH
substance,measurement,setting,value
gonadotropin releasing hormone [GnRH],"1κB fold-change, SYBR PCR (n = 9)",[1]; [3],2.6 ± 0.2 fold
same,"Egr1 fold-change, SYBR PCR (n = 9)",[1]; [3],390.6 ± 83.9 fold
same,"Egr2 fold-change, SYBR PCR (n = 9)",[1]; [3],294.7 ± 35.6 fold
same,"Gem fold-change, SYBR PCR (n = 9)",[1]; [3],4.3 ± 0.3 fold
same,"HSP30 fold-change, SYBR PCR (n = 9)",[1]; [3],1.9 ± 0.2 fold
same,"Klf4 fold-change, SYBR PCR (n = 9)",[1]; [3],2.9 ± 0.3 fold
same,"Klf-like EST fold-change, SYBR PCR (n = 9)",[1]; [3],2.5 ± 0.2 fold
same,"LRG21 fold-change, SYBR PCR (n = 9)",[1]; [3],96.8 ± 15.7 fold
same,"MKP1/3CH134 fold-change, SYBR PCR (n = 9)",[1]; [3],3.4 ± 0.4 fold
same,"NMDMC fold-change, SYBR PCR (n = 9)",[1]; [3],1.6 ± 0.3 fold
same,"Nr4a1/nur77 fold-change, SYBR PCR (n = 9)",[1]; [3],49.4 ± 10.1 fold
same,"Nrf2 fold-change, SYBR PCR (n = 9)",[1]; [3],1.5 ± 0.1 fold
same,"PRL1 fold-change, SYBR PCR (n = 9)",[1]; [3],2.1 ± 0.1 fold
same,"Period1 fold-change, SYBR PCR (n = 9)",[1]; [3],4.9 ± 1.1 fold
same,"Rgs2 fold-change, SYBR PCR (n = 9)",[1]; [3],8.7 ± 0.4 fold
same,"TSC22 fold-change, SYBR PCR (n = 9)",[1]; [3],3.3 ± 0.2 fold
same,"c-fos fold-change, SYBR PCR (n = 9)",[1]; [3],52.0 ± 5.8 fold
same,"c-jun fold-change, SYBR PCR (n = 9)",[1]; [3],6.6 ± 0.9 fold
same,"gly96 fold-change, SYBR PCR (n = 9)",[1]; [3],3.8 ± 0.5 fold
same,"ler2/Pip92 fold-change, SYBR PCR (n = 9)",[1]; [3],17.1 ± 2.4 fold
same,"transgelin fold-change, SYBR PCR (n = 9)",[1]; [3],1.8 ± 0.2 fold
same,"β-actin fold-change, SYBR PCR (n = 9)",[1]; [3],1.6 ± 0.1 fold
same,"γ-actin fold-change, SYBR PCR (n = 9)",[1]; [3],3.9 ± 0.4 fold
same,SCL regulation by real-time PCR,[1]; [4],2.4 fold
same,STY kinase regulation by real-time PCR,[1]; [4],1.7 fold
same,glucose transport protein regulation by real-time PCR,[1]; [4],2.2 fold
same,levels of gly96 in the presence of CHX,[2],increase
